Tests used:
[1] = target: T1, CETP (Homo sapiens, UniProt P11597); experiment: CETP fluorescence test with enriched CETP; assay type: biochemical; settings: enriched CETP fraction from human plasma; transfer of fluorescent cholesterol ester between liposomes; 37° C. for 4 h
T1 construct: CETP is obtained in partially purified form from human plasma by differential centrifugation and column chromatography and used for the test; from tissue; host or cells: human plasma
T1 sequence (P11597 18-493): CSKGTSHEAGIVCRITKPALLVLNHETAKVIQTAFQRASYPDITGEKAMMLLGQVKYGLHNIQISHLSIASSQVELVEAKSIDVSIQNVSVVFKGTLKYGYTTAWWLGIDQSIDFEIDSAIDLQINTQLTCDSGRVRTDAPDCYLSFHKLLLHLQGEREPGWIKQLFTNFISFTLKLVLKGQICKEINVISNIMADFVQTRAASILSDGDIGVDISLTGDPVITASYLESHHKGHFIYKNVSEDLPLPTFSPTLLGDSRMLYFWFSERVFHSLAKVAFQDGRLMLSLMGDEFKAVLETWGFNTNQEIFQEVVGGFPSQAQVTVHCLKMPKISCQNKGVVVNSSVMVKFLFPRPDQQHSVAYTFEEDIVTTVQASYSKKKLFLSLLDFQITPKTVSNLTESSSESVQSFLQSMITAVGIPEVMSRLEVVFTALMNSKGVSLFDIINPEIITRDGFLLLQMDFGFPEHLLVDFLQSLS
Description: (§1) CETP is obtained in partially purified form from human plasma by differential centrifugation and column chromatography and used for the test. To this end, human plasma is adjusted to a density of 1.21 g per ml using NaBr and centrifuged at 4° C. at 50 000 rpm for 18 h. The bottom fraction (d>1.21 g/ml) is applied to a Phenyl-Sepharose 26/10 HP fast flow-column (Pharmacia), washed with PBS buffer and then eluted with distilled water. 10 parts of PBS buffer and 1% (w/v) BSA are added to the eluate. The CETP-active fractions are pooled.
Measurement of the CETP-catalyzed transfer of a fluorescent cholesterol ester between liposomes [modified according to the procedure of Bisgaier et al., J. Lipid Res. 34, 1625 (1993)]:
For the production of the donor liposomes, 1 mg of cholesteryl 4,4-difluoro-5,7-dimethyl-4-bora-3a,4a-diaza-s-indacene-3-dodecanoate (cholesteryl BODIPY® FL C12, Molecular Probes) is dissolved in 2 ml of chloroform with 5.35 mg of triolein and 6.67 mg of phosphatidylcholine. The solvent is removed at medium temperature in a SpeedVac and the residue is dried under high vacuum for 1 h. The residue is then dissolved in 600 μl of dioxane with gentle warming in an ultrasonic bath and this solution is added very slowly with ultrasonication to 63 ml of 50 mM Tris/HCl, 150 mM NaCl, 2 mM EDTA buffer pH 7.3 at room temperature. The suspension is then ultrasonicated under an N2 atmosphere for 30 minutes in the Branson ultrasonic bath at about 50 watts, the temperature being kept at about 20° C.
The acceptor liposomes are obtained analogously from 86 mg of cholesteryl oleate, 20 mg of triolein and 100 mg of phosphatidylcholine dissolved in 1.2 ml of dioxane and 114 ml of the above buffer by ultrasonication at 50 watts (20° C.) for 30 minutes.
For testing, a test mix consisting of 1 part of above buffer, 1 part of donor liposomes and 2 parts of acceptor liposomes is used.
50 μl of test mix are treated with 48 μl of enriched CETP fraction (1-3 μg), obtained from human plasma by means of hydrophobic chromatography, and 2 μl of a solution of the substance to be investigated in DMSO and incubated at 37° C. for 4 h.
The change in the fluorescence at 485/535 nm is a measure of the CE transfer; the inhibition of the transfer in comparison to the control batch without substance is determined.

[2] = target: T1, CETP; experiment: CETP-SPA test; assay type: biochemical; settings: transfer of 3H-cholesterol ester from human HDL to biotinylated LDL; 37° C. for 18 h
Description: as §1
For testing of the CETP activity, the transfer of ^3H-cholesterol ester from human HD lipoproteins to biotinylated LD lipoproteins is measured. The reaction is ended by addition of streptavidin-SPA® beads (Amersham) and the transferred radioactivity is determined directly in a liquid scintillation counter.
In the test batch, 10 μl of HDL-3H-cholesterol ester (about 50 000 cpm) are incubated at 37° C. for 18 h with 10 μl of biotin-LDL (Amersham) in 50 mM Hepes/0.15 M NaCl/0.1% bovine serum albumin (RSA)/0.05% NaN3 pH 7.4 containing 10 μl of CETP (1 mg/ml) and 3 μl of a solution of the substance to be tested (dissolved in 10% DMSO/1% RSA). 200 μl of the SPA-streptavidin bead solution (TRKQ 7005) are then added, incubated further with shaking for 1 h and then measured in a scintillation counter. Corresponding incubations with 10 μl of buffer, 10 μl of CETP at 4° C. and 10 μl of CETP at 37° C. serve as controls.
The activity transferred in the control batches with CETP at 37° C. is rated as 100% transfer. The substance concentration at which this transfer is reduced to half is specified as the IC50 value.

SMILES	IC50 [1]	IC50 [2]
CC(C)c1cc2c(c(-c3ccc(F)cc3)c1C(=O)c1ccc(C(F)(F)F)cc1)[C@@H](O)CC(C)(C)O2 [Example 4, [(4S)-5-(4-Fluorophenyl)-4-hydroxy-7-isopropyl-2,2-dimethyl-3,4-dihydro-2H-chromen-6-yl][4-(trifluoromethyl)phenyl]methanone]	90 nM	62 nM
CC(C)c1cc2c(c(-c3ccc(F)cc3)c1[C@@H](O)c1ccc(C(F)(F)F)cc1)[C@@H](O)CC(C)(C)O2 [Example 5, (4S)-5-(4-Fluorophenyl)-6-{(S)-hydroxy[4-(trifluoromethyl)phenyl]methyl}-7-isopropyl-2,2-di-methylchroman-4-ol]	35 nM	29 nM
CC(C)c1cc2c(c(-c3ccc(F)cc3)c1Cc1ccc(C(F)(F)F)cc1)[C@@H](O)CC(C)(C)O2 [Example 9, (4S)-5-(4-Fluorophenyl)-7-isopropyl-2,2-dimethyl-6-[4-(trifluoromethyl)benzyl]chroman-4-ol]	90 nM	33 nM
CC(C)c1cc2c(c(-c3ccc(F)cc3)c1[C@@H](O)c1ccc(OC(F)(F)F)cc1)[C@@H](O)CC(C)(C)O2 [Example 11, (4S)-5-(4-Fluorophenyl)-6-{(S)-hydroxy[4-(trifluoromethoxy)phenyl]methyl}-7-isopropyl-2,2-di-methylchroman-4-ol]	63 nM	51 nM
CC(C)c1cc2c(c(C3=CCCCC3)c1C(=O)c1ccc(C(F)(F)F)cc1)[C@@H](O)CC(C)(C)O2 [Example 19, (5-Cyclohex-1-en-1-yl-4-hydroxy-7-isopropyl-2,2-dimethyl-3,4-dihydro-2H-chromen-6-yl)[4-(tri-fluoromethyl)phenyl]methanone]	200 nM	300 nM
CC(C)c1cc2c(c(C3=CCCC3)c1[C@@H](O)c1ccc(C(F)(F)F)cc1)[C@@H](O)CC(C)(C)O2 [Example 22, (4S)-5-Cyclopent-1-en-1-yl-6-{(S)-hydroxy[4-(trifluoromethyl)phenyl]methyl}-7-isopropyl-2,2-di-methylchroman-4-ol]	51 nM	57 nM
CC(C)c1cc2c(c(C3CCCC3)c1[C@@H](O)c1ccc(C(F)(F)F)cc1)[C@@H](O)CC(C)(C)O2 [Example 24, (4S)-5-Cyclopent-1-yl-6-{(S)-hydroxy[4-(trifluoromethyl)phenyl]methyl}-7-isopropyl-2,2-dimethylchroman-4-ol]	30 nM	16 nM
CC(C)c1cc2c(c(-c3ccc(F)cc3)c1C(=O)c1ccc(C(F)(F)F)cc1)[C@@H](O)CC1(CCC1)O2 [Example 27, [(4S)-5-(4-Fluorophenyl)-4-hydroxy-7-isopropyl-3,4-dihydrospiro[chromen-2,1′-cyclobutan]-6-yl]-[4-(trifluoromethyl)phenyl]methanone]	35 nM	18 nM
CC(C)c1cc2c(c(-c3ccc(F)cc3)c1[C@H](F)c1ccc(C(F)(F)F)cc1)[C@@H](O)CC1(CCC1)O2 [Example 31, (4S)-5-(4-fluorophenyl)-6-{(R)-fluoro[4-(trifluoromethyl)phenyl]methyl}-7-isopropyl-3,4-dihydro-spiro[chromen-2,1′-cyclobutan]-4-ol]	53 nM	20 nM
CC(C)c1cc2c(c(-c3ccc(F)cc3)c1C(=O)c1ccc(C(C)(C)C)cc1)[C@@H](O)CC1(CCC1)O2 [Example 33, (4-tert-Butylphenyl)[(4S)-5-(4-fluorophenyl)-4-hydroxy-7-isopropyl-3,4-dihydrospiro[chromen-2,1′-cyclobutan]-6-yl]methanone]	59 nM	16 nM
CC(C)c1cc2c(c(-c3ccc(F)cc3)c1[C@@H](O)c1ccc(C(C)(C)C)cc1)[C@@H](O)CC1(CCC1)O2 [Example 34, (4S)-6-[(S)-(4-tert-Butylphenyl)(hydroxy)methyl]-5-(4-fluorophenyl)-7-isopropyl-3,4-dihydro-spiro[chromen-2,1′-cyclobutan]-4-ol]	14 nM	5 nM
CC(C)c1cc2c(c(-c3ccc(F)cc3)c1[C@H](O)c1ccc(C(C)(C)C)cc1)[C@@H](O)CC1(CCC1)O2 [Example 35, (4S)-6-[(R)-(4-tert-butylphenyl)(hydroxy)methyl]-5-(4-fluorophenyl)-7-isopropyl-3,4-dihydro-spiro[chromen-2,1′-cyclobutan]-4-ol]	800 nM	400 nM
CC(C)c1cc2c(c(-c3ccc(F)cc3)c1C(=O)c1ccc(OC(F)(F)F)cc1)[C@@H](O)CC1(CCC1)O2 [Example 37, [(4S)-5-(4-Fluorophenyl)-4-hydroxy-7-isopropyl-3,4-dihydrospiro[chromen-2,1′-cyclobutan]-6-yl]-[4-(trifluoromethoxy)phenyl]methanone]	36 nM	30 nM
CC(C)c1cc2c(c(-c3ccc(F)cc3)c1Cc1ccc(OC(F)(F)F)cc1)[C@@H](O)CC1(CCC1)O2 [Example 41, (4S)-5-(4-Fluorophenyl)-7-isopropyl-6-[4-(trifluoromethoxy)benzyl]-3,4-dihydrospiro[chromen-2,1′-cyclobutan]-4-ol]	19 nM	15 nM
CC(C)c1cc2c(c(C3CCCC3)c1[C@H](F)c1ccc(C(F)(F)F)cc1)[C@@H](O)CC1(CCC1)O2 [Example 43, (4S)-5-cyclopentyl-6-{(R)-fluoro[4-(trifluoromethyl)phenyl]methyl}-7-isopropyl-3,4-dihydrospiro-[chroman-2,1′-cyclobutan]-4-ol]	61 nM	100 nM
O=C(c1ccc(C(F)(F)F)cc1)c1c(C2CCCC2)cc2c(c1-c1ccc(F)cc1)[C@@H](O)CC1(CCC1)O2 [Example 44]	45 nM	31 nM
O[C@@H](c1ccc(C(F)(F)F)cc1)c1c(C2CCCC2)cc2c(c1-c1ccc(F)cc1)[C@@H](O)CC1(CCC1)O2 [Example 45]	26 nM	21 nM
CC(C)(C)c1ccc(C(=O)c2c(C3CCCC3)cc3c(c2-c2ccc(F)cc2)[C@@H](O)CC2(CCC2)O3)cc1 [Example 47]	50 nM	38 nM
CC(C)(C)c1ccc([C@H](O)c2c(C3CCCC3)cc3c(c2-c2ccc(F)cc2)[C@@H](O)CC2(CCC2)O3)cc1 [Example 48]	33 nM	14 nM
CC(C)(C)c1ccc([C@@H](O)c2c(C3CCCC3)cc3c(c2-c2ccc(F)cc2)[C@@H](O)CC2(CCC2)O3)cc1 [Example 49]	–	400 nM
CC(C)(C)c1ccc(Cc2c(C3CCCC3)cc3c(c2-c2ccc(F)cc2)[C@@H](O)CC2(CCC2)O3)cc1 [Example 50]	30 nM	15 nM
O=C(c1ccc(OC(F)(F)F)cc1)c1c(C2CCCC2)cc2c(c1-c1ccc(F)cc1)[C@@H](O)CC1(CCC1)O2 [Example 51]	42 nM	100 nM

From patent US8227511B2, “Substituted chromanol derivatives and their use” (Bayer Intellectual Property GmbH, priority 2006, dated 2012)
